Source: US6509011B1, “Method of hair treatment using organic amino compounds” (Unilever Home & Personal Care USA, division of Conopco, Inc., priority 1999, dated 2003)

Assay: Cuticle abrasion of treated hair switches
Description: Cuticle abrasion and sensory experiments were performed on bleached hair with unbleached “virgin” hair as a control.
A shampoo base was used to treat hair switches:
Two samples of the above formulation were prepared, with the addition of 0.2% arginine to one of the samples.
Four sets of switches were used and treated as follows:
Set 1. Bleached switches washed 6 times in base, with final base wash containing 0.2% arginine.
Set 2. Bleached switches based washed 6 times in base with 0.2% arginine
Set 3. Bleached switches washed 6 times in base without 0.2% arginine
Set 4. Unbleached virgin hair washed in base without arginine.
The treated samples were subjected to cuticle abrasion (in duplicate).

N=C(N)NCCC[C@H](N)C(=O)O [arginine]
cuticle cohesion after cuticle abrasion (set 1: bleached switches washed 6 times in base, only final wash containing 0.2% arginine): evidence of improved cuticle cohesion
amount of cuticle removed by abrasion (set 1: bleached switches washed 6 times in base, only final wash containing 0.2% arginine, compared with set 3 (no arginine)): Significantly less cuticle was removed than set 3
removed cuticle sample size and appearance (set 2: bleached switches washed 6 times in shampoo base with 0.2% arginine): closer in sample size and appearance to the unbleached sample
cuticle cohesion after cuticle abrasion (set 2: bleached switches washed 6 times in shampoo base with 0.2% arginine, compared with set 3 (base without arginine)): significantly better cuticle cohesion
